{"source": "paper PMC4268911", "about": "(International Journal of Nanomedicine, 2014)", "key": {"MCF-7 cells": {"test_system": "MCF-7 cells", "assay": "In vitro cytotoxicity of conjugate, MTS-based assay", "assay_type": "cell-based, human", "conditions": "MCF-7, 0–200 μg mL−1 polymer, 24 hours"}, "MDAMB 231 cells": {"test_system": "MDAMB 231 cells", "assay": "In vitro cytotoxicity of conjugate, MTS-based assay", "assay_type": "cell-based, human", "conditions": "MDAMB 231, 0–200 μg mL−1 polymer, 24 hours"}}}
{"substance": "Low-molecular-weight heparin [LMWH]", "values": [{"measurement": "cytotoxicity (cell viability)", "setting": "MCF-7 cells", "value": "no severe in vitro cytotoxicity"}, {"measurement": "cytotoxicity (cell viability)", "setting": "MDAMB 231 cells", "value": "no severe in vitro cytotoxicity"}]}
